From patent US4708966A, “Novel anti-inflammatory agents, pharmaceutical compositions and methods for reducing inflammation” (The Procter & Gamble Company, priority 1986, dated 1987) come the findings set out here.

Structures are written as SMILES.

Series [1] relates to carrageenan rat paw edema. In words: Carrageenan Rat Paw Edema Test. Format: in vivo, Male Sprague-Dawley rats. The method, then:
Carrageenan Rat Paw Edema Test
Male Sprague-Dawley rats (Charles River Laboratories) are weighed and food fasted overnight. The animals are then divided into four to six groups of six animals each according to body weights (average about 145 g) so that each group has about the same average body weight (within 10 g).
The following morning animals are dosed with the test compound and then placed in individual cages. For oral dosing, the drug is suspended in 0.5% methyl cellulose with 2% Tween 80, and delivered via stomach tube in a 5 ml volume.
Paw volumes (0 time) are determined on both hind paws with a mercury displacement device equipped with a transducer and digitizer. One hour after dosing the test compound, the animals are placed in a plastic restrainer and 50 ul of a 1% (w/w) carrageenan solution in 0.9% saline is injected into the ventral surface of the left rear paw. Four hours after the carrageenan injection, the paw volumes are again determined.
The results are expressed as percent inhibition of the mean paw volume of the test group relative to the control group. Statistical differences are determined by one way analysis of variance. ID35 values are determined by regression analysis.

Another series relates to cyclooxygenase ("COX"). In words: inhibition of cyclooxygenase in arachidonic acid metabolism. Format: biochemical.
A further series deals with lipoxygenase ("LOX"). In words: inhibition of lipoxygenase in arachidonic acid metabolism. The series is classed as biochemical.
The test system of the next series is inflammation. In words: anti-inflammatory activity in animal models of inflammation. The series is classed as in vivo. The method, then:
(§1) In order to determine and assess pharmacological activity, testing of these compounds in animals is carried out using various assays known to those skilled in the art. […] Examples of such known tests include the carrageenan rat edema test, the oxazolone-induced inflamed mouse ear test, and the arachidonic acid-induced inflamed mouse ear test. Anti-pyretic acitivity may be tested using art-known rat models, and analgesic acitivty may be tested in art-known models such as the acetylcholine model in mice, the Randall-Selitto model in rats, and the hot-plate test in mice. Another useful art-known test is the adjuvant arthritis test which is a useful model for assessing anti-inflammatory activity and anti-resorptive activity in a chronic, rather than acute, model.
These and other appropriate tests for pharmacological activity are disclosed and/or referred to in U.S. Pat. No. 4,130,666, issued Dec. 19, 1978 to Moore; U.S. Pat. No. 4,440,784, issued Apr. 3, 1984 to Katsumi et al.; Japanese patent application No. 85/54315, published Mar. 28, 1985 by Katsumi et al.; European Patent Application Publication No. 59,090, published Sept. 1, 1982 by Yamanouchi Pharmaceutical Co., Ltd.; "Prostaglandin and Leukotriene Synthesis in Mouse Ears Inflamed by Arachidonic Acid", The Journal of Investigative Dermatology, 84, pp. 253-256 (1985); U.S. Pat. No. 4,431,656, issued Feb. […]

Series [2] in a line: antioxidant and free radical scavenging activity.
Series [3] is described as follows: gastric damage / gastrointestinal irritation. The series is classed as in vivo. Particulars: levels significantly greater than the therapeutic dose, test animals.
Series [4] can be described thus: toxicity (acute oral toxicity). The series is classed as in vivo. Particulars: test animals.
A further series can be described thus: oral analgesic activity. Format: in vivo. Particulars: "peripheral" type, compared to aspirin. As for the experimental part:
as §1

The next series has as its system rheumatoid arthritis. Description: tablets in a patient suffering from rheumatoid arthritis. Particulars: tablet, 200 mg Compound 11, oral, two times daily. The series is classed as in vivo. As for the experimental part: (§2) Pharmaceutical Compositions in Tablet Form
(§3) Tablets are prepared by conventional methods, such as mixing and direct compaction, formulated as follows: […]

For the next series, the system named is osteoarthritis. Description: tablets in a patient suffering from osteoarthritis. Particulars: tablet, 200 mg Compound 11, twice daily. The series is classed as in vivo. As for the experimental part:
as §2, §3

Series [5] concerns rheumatoid arthritis or osteoarthritis. In words: capsules in a patient afflicted with rheumatoid arthritis or osteoarthritis. The series is classed as in vivo. The note with it: capsule, 200 mg Compound 11, oral, once a day. As for the experimental part:
Pharmaceutical Compositions in Capsule Form
Capsules are prepared by conventional methods, comprised as follows: […]

For `C#CCCCC(=O)c1cc(C(C)(C)C)c(O)c(C(C)(C)C)c1` [Compound 11, 4-(5'-hexynoyl)-2,6-di-t-butylphenol], the ED35 in series [1] (4 h, oral, by regression analysis, read-out: ID35) stood at 4.8 mg/kg. In series [1] (po, 100 mg/kg P.O., paw volume 4 h after carrageenan, vs control group, read-out: Percent Inhibiton at 100 mg/kg dose P.O), the inhibition in vivo at 100 mg/kg was 67.6%. For the same compound, the “inhibition of cyclooxygenase (COX)” value in the series with cyclooxygenase ("COX") is on record as “dual inhibitor”. In the series with lipoxygenase ("LOX"), the “inhibition of lipoxygenase (LOX)” value was “dual inhibitor”. Besides, the “oral activity in several animal models of inflammation” value in the series with inflammation is reported as “very good oral activity”. In addition, in series [2], the “antioxidant and free radical scavenging activity” value is “antioxidant and free radical scavenging activity”. In series [3], the “gastric damage after oral dosing” value is listed as “very low or no gastric damage”. Besides, the acute oral toxicity result in series [4] is given as “very low acute oral toxicity”. Further, the oral analgesic activity entry in “oral analgesic activity” was “superior to aspirin”. In the series with rheumatoid arthritis, the reduction of inflammation result was “significantly reduces the inflammation”. The benefit result with osteoarthritis is given as “significant benefit”. The reduction of symptomology entry in series [5] was “substantially reduces the symptomology”.
